In the supplement of paper PMC10307832:

How the values were obtained:
Assay in all cases: relative viability (nuclei count vs DMSO), 5 days (fraction); higher = more cells survive
NCI-H1915 = test system: NCI-H1915
Outline: (§1)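 Dosing by pin tool came one day after lung cancer cell lines were seeded in 1536-well plates, using either one drug or a fixed anchor-drug dose plus five library-drug doses (not always all listed) in √10 steps. After 5 days, nuclei were counted on 4× images. Relative viability is treated-well nuclei count divided by vehicle-well nuclei count, and values are medians of duplicate plates.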

EPLC-272H = test system: EPLC-272H
Outline: as §1

EMC-BAC-2 = test system: EMC-BAC-2
Outline: as §1

NCI-H322M = test system: NCI-H322M
Outline: as §1

PC-14 = test system: PC-14
Outline: as §1

LCLC-97TM1 = test system: LCLC-97TM1
Outline: as §1

LXF-289 = test system: LXF-289
Outline: as §1

NCI-H2085 = test system: NCI-H2085
Outline: as §1

NCI-H1993 = test system: NCI-H1993
Outline: as §1

NCI-H2347 = test system: NCI-H2347
Outline: as §1

HOP-62 = test system: HOP-62
Outline: as §1

NCI-H1734 = test system: NCI-H1734
Outline: as §1

NCI-H2126 = test system: NCI-H2126
Outline: as §1

NCI-H647 = test system: NCI-H647
Outline: as §1

H3255 = test system: H3255
Outline: as §1

NCI-H727 = test system: NCI-H727
Outline: as §1

Structure (SMILES): CC(=O)O[C@@]12CO[C@@H]1C[C@H](O)[C@@]1(C)C(=O)[C@H](O)C3=C(C)[C@@H](OC(=O)[C@H](O)[C@@H](NC(=O)OC(C)(C)C)c4ccccc4)C[C@@](O)([C@@H](OC(=O)c4ccccc4)[C@H]21)C3(C)C [Docetaxel] + NC(=O)Nc1cc(-c2cccc(F)c2)sc1C(=O)N[C@H]1CCCNC1 [AZD7762] (partner 0.2 µM)
- relative viability (NCI-H1915; first compound 0.0002 µM): 0.638
- relative viability (NCI-H1915; first compound 0.000632 µM): 0.703
- relative viability (NCI-H1915; first compound 0.002 µM): 0.527
- relative viability (NCI-H1915; first compound 0.006325 µM): 0.182
- relative viability (NCI-H1915; first compound 0.02 µM): 0.107
- relative viability (EPLC-272H; first compound 0.000632 µM): 0.191
- relative viability (EPLC-272H; first compound 0.002 µM): 0.0912
- relative viability (EPLC-272H; first compound 0.006325 µM): 0.149
- relative viability (EPLC-272H; first compound 0.02 µM): 0.0556
- relative viability (EMC-BAC-2; first compound 0.0002 µM): 1.03
- relative viability (EMC-BAC-2; first compound 0.000632 µM): 0.885
- relative viability (EMC-BAC-2; first compound 0.002 µM): 0.467
- relative viability (EMC-BAC-2; first compound 0.006325 µM): 0.334
- relative viability (EMC-BAC-2; first compound 0.02 µM): 0.369
- relative viability (NCI-H322M; first compound 0.0002 µM): 0.611
- relative viability (NCI-H322M; first compound 0.000632 µM): 0.459
- relative viability (NCI-H322M; first compound 0.002 µM): 0.451
- relative viability (NCI-H322M; first compound 0.006325 µM): 0.509
- relative viability (NCI-H322M; first compound 0.02 µM): 0.39
- relative viability (PC-14; first compound 0.0002 µM): 0.322
- relative viability (PC-14; first compound 0.000632 µM): 0.337
- relative viability (PC-14; first compound 0.002 µM): 0.132
- relative viability (PC-14; first compound 0.006325 µM): 0.0705
- relative viability (PC-14; first compound 0.02 µM): 0.0363
- relative viability (LCLC-97TM1; first compound 0.0002 µM): 0.194
- relative viability (LCLC-97TM1; first compound 0.000632 µM): 0.221
- relative viability (LCLC-97TM1; first compound 0.002 µM): 0.078
- relative viability (LCLC-97TM1; first compound 0.006325 µM): 0.0825
- relative viability (LCLC-97TM1; first compound 0.02 µM): 0.0475
- relative viability (LXF-289; first compound 0.0002 µM): 1.1
- relative viability (LXF-289; first compound 0.000632 µM): 0.664
- relative viability (LXF-289; first compound 0.002 µM): 0.346
- relative viability (LXF-289; first compound 0.006325 µM): 0.129
- relative viability (LXF-289; first compound 0.02 µM): 0.0873
- relative viability (NCI-H2085; first compound 0.0002 µM): 0.963
- relative viability (NCI-H2085; first compound 0.000632 µM): 0.954
- relative viability (NCI-H2085; first compound 0.002 µM): 0.849
- relative viability (NCI-H2085; first compound 0.006325 µM): 0.338
- relative viability (NCI-H2085; first compound 0.02 µM): 0.309
- relative viability (NCI-H1993; first compound 0.0002 µM): 0.873
- relative viability (NCI-H1993; first compound 0.000632 µM): 0.739
- relative viability (NCI-H1993; first compound 0.002 µM): 0.603
- relative viability (NCI-H1993; first compound 0.006325 µM): 0.477
- relative viability (NCI-H1993; first compound 0.02 µM): 0.303
- relative viability (NCI-H2347; first compound 0.0002 µM): 0.697
- relative viability (NCI-H2347; first compound 0.000632 µM): 0.583
- relative viability (NCI-H2347; first compound 0.002 µM): 0.434
- relative viability (NCI-H2347; first compound 0.006325 µM): 0.395
- relative viability (NCI-H2347; first compound 0.02 µM): 0.268
- relative viability (HOP-62; first compound 0.0002 µM): 0.6
- relative viability (HOP-62; first compound 0.000632 µM): 0.395
- relative viability (HOP-62; first compound 0.02 µM): 0.0943
- relative viability (NCI-H1734; first compound 0.0002 µM): 0.449
- relative viability (NCI-H1734; first compound 0.000632 µM): 0.384
- relative viability (NCI-H1734; first compound 0.002 µM): 0.199
- relative viability (NCI-H1734; first compound 0.006325 µM): 0.222
- relative viability (NCI-H1734; first compound 0.02 µM): 0.164
- relative viability (NCI-H2126; first compound 0.0002 µM): 1.07
- relative viability (NCI-H2126; first compound 0.000632 µM): 1
- relative viability (NCI-H2126; first compound 0.002 µM): 0.571
- relative viability (NCI-H2126; first compound 0.006325 µM): 0.395
- relative viability (NCI-H647; first compound 0.0002 µM): 0.297
- relative viability (NCI-H647; first compound 0.000632 µM): 0.217
- relative viability (NCI-H647; first compound 0.002 µM): 0.0746
- relative viability (NCI-H647; first compound 0.006325 µM): 0.0816
- relative viability (NCI-H647; first compound 0.02 µM): 0.0266
- relative viability (H3255; first compound 0.0002 µM): 0.749
- relative viability (H3255; first compound 0.000632 µM): 0.859
- relative viability (H3255; first compound 0.002 µM): 0.446
- relative viability (H3255; first compound 0.006325 µM): 0.288
- relative viability (H3255; first compound 0.02 µM): 0.288
- relative viability (NCI-H727; first compound 0.0002 µM): 0.482
- relative viability (NCI-H727; first compound 0.000632 µM): 0.537
- relative viability (NCI-H727; first compound 0.002 µM): 0.503
- relative viability (NCI-H727; first compound 0.006325 µM): 0.452
- relative viability (NCI-H727; first compound 0.02 µM): 0.381

Structure (SMILES): Cc1sc2c(c1C)C(c1ccc(Cl)cc1)=N[C@@H](CC(=O)OC(C)(C)C)c1nnc(C)n1-2 [JQ1] + NC(=O)Nc1cc(-c2cccc(F)c2)sc1C(=O)N[C@H]1CCCNC1 [AZD7762] (partner 0.2 µM)
- relative viability (NCI-H1915; first compound 0.04 µM): 0.729
- relative viability (NCI-H1915; first compound 0.4 µM): 0.653
- relative viability (NCI-H1915; first compound 1.265 µM): 0.437
- relative viability (NCI-H1915; first compound 4 µM): 0.241
- relative viability (EPLC-272H; first compound 0.04 µM): 0.244
- relative viability (EPLC-272H; first compound 0.1265 µM): 0.122
- relative viability (EPLC-272H; first compound 0.4 µM): 0.355
- relative viability (EPLC-272H; first compound 1.265 µM): 0.246
- relative viability (EPLC-272H; first compound 4 µM): 0.214
- relative viability (EMC-BAC-2; first compound 0.04 µM): 1.08
- relative viability (EMC-BAC-2; first compound 0.1265 µM): 0.869
- relative viability (EMC-BAC-2; first compound 0.4 µM): 0.975
- relative viability (EMC-BAC-2; first compound 1.265 µM): 0.725
- relative viability (EMC-BAC-2; first compound 4 µM): 0.627
- relative viability (NCI-H322M; first compound 0.04 µM): 0.532
- relative viability (NCI-H322M; first compound 0.1265 µM): 0.534
- relative viability (NCI-H322M; first compound 0.4 µM): 0.44
- relative viability (NCI-H322M; first compound 1.265 µM): 0.397
- relative viability (NCI-H322M; first compound 4 µM): 0.437
- relative viability (PC-14; first compound 0.04 µM): 0.267
- relative viability (PC-14; first compound 0.1265 µM): 0.259
- relative viability (PC-14; first compound 0.4 µM): 0.207
- relative viability (PC-14; first compound 1.265 µM): 0.125
- relative viability (PC-14; first compound 4 µM): 0.0805
- relative viability (LCLC-97TM1; first compound 0.04 µM): 0.269
- relative viability (LCLC-97TM1; first compound 0.1265 µM): 0.255
- relative viability (LCLC-97TM1; first compound 0.4 µM): 0.268
- relative viability (LCLC-97TM1; first compound 1.265 µM): 0.097
- relative viability (LCLC-97TM1; first compound 4 µM): 0.0653
- relative viability (LXF-289; first compound 0.04 µM): 1.12
- relative viability (LXF-289; first compound 0.1265 µM): 1.07
- relative viability (LXF-289; first compound 0.4 µM): 0.851
- relative viability (LXF-289; first compound 1.265 µM): 1.02
- relative viability (LXF-289; first compound 4 µM): 0.512
- relative viability (NCI-H2085; first compound 0.04 µM): 0.935
- relative viability (NCI-H2085; first compound 0.1265 µM): 0.822
- relative viability (NCI-H2085; first compound 0.4 µM): 1.06
- relative viability (NCI-H2085; first compound 1.265 µM): 0.446
- relative viability (NCI-H2085; first compound 4 µM): 0.318
- relative viability (NCI-H1993; first compound 0.04 µM): 0.849
- relative viability (NCI-H1993; first compound 0.1265 µM): 0.779
- relative viability (NCI-H1993; first compound 0.4 µM): 0.796
- relative viability (NCI-H1993; first compound 1.265 µM): 0.53
- relative viability (NCI-H1993; first compound 4 µM): 0.488
- relative viability (NCI-H2347; first compound 0.04 µM): 0.811
- relative viability (NCI-H2347; first compound 0.1265 µM): 0.917
- relative viability (NCI-H2347; first compound 0.4 µM): 0.724
- relative viability (NCI-H2347; first compound 1.265 µM): 0.445
- relative viability (NCI-H2347; first compound 4 µM): 0.357
- relative viability (HOP-62; first compound 0.04 µM): 0.535
- relative viability (HOP-62; first compound 0.1265 µM): 0.608
- relative viability (HOP-62; first compound 0.4 µM): 0.37
- relative viability (HOP-62; first compound 1.265 µM): 0.103
- relative viability (HOP-62; first compound 4 µM): 0.107
- relative viability (NCI-H1734; first compound 0.04 µM): 0.544
- relative viability (NCI-H1734; first compound 0.1265 µM): 0.53
- relative viability (NCI-H1734; first compound 0.4 µM): 0.47
- relative viability (NCI-H1734; first compound 1.265 µM): 0.281
- relative viability (NCI-H1734; first compound 4 µM): 0.273
- relative viability (NCI-H2126; first compound 0.04 µM): 1.08
- relative viability (NCI-H2126; first compound 0.1265 µM): 1.01
- relative viability (NCI-H2126; first compound 0.4 µM): 1.04
- relative viability (NCI-H2126; first compound 1.265 µM): 0.956
- relative viability (NCI-H2126; first compound 4 µM): 0.838
- relative viability (NCI-H647; first compound 0.04 µM): 0.472
- relative viability (NCI-H647; first compound 0.1265 µM): 0.293
- relative viability (NCI-H647; first compound 0.4 µM): 0.25
- relative viability (NCI-H647; first compound 1.265 µM): 0.103
- relative viability (NCI-H647; first compound 4 µM): 0.0446
- relative viability (H3255; first compound 0.04 µM): 0.851
- relative viability (H3255; first compound 0.1265 µM): 0.67
- relative viability (H3255; first compound 0.4 µM): 0.71
- relative viability (H3255; first compound 1.265 µM): 0.411
- relative viability (H3255; first compound 4 µM): 0.277
- relative viability (NCI-H727; first compound 0.04 µM): 0.735
- relative viability (NCI-H727; first compound 0.1265 µM): 0.61
- relative viability (NCI-H727; first compound 0.4 µM): 0.539
- relative viability (NCI-H727; first compound 1.265 µM): 0.436
- relative viability (NCI-H727; first compound 4 µM): 0.405
